Values joined by “and” are separate entries in the source; they are usually repeats but may differ in a detail not shown here. Identical values can stand only once.
What was measured:
[1] = system: OVA-induced asthma; experiment: OVA-induced mouse asthma model; format: in vivo, Balb/c mice; conditions: for repression of airway hyper-responsiveness (AHR): Balb/c mice; for % repression of AHR: ACH challenge 4 mg kg^-1
Experimental: As described before, 7–9-week-old female Balb/c mice (Taconic) were sensitized on days 0, 7 and 14 by i.p. injection of 50 μg OVA/1 mg alum in a total of 200 μl saline. Control mice received an equal volume of alum only. Mice were lightly anesthetized by isoflurane inhalation and challenged with intranasal OVA (100 μg in 30 μl saline) or saline on days 21–23, and were i.p. injected with different steroids. Twenty-four hours after the last challenge and treatment, pulmonary resistance was measured in response to a range of concentrations of intravenous acetylcholine using the forced oscillation technique with the FlexiVent system (SCIREQ) as previously described. Serum samples were analyzed for OVA-specific IgE using an ELISA (BD Biosciences, clone R35-118). Total and differential cell counts were determined by hemocytometer and by light microscopic evaluation of more than 300 cells per slide as previously described. After lavage, lungs were inflated with 10% buffered formalin to 25 cm H2O and transferred to 10% buffered formalin. Sections (5 μm) were stained with H&E for semi-quantitative assessment of inflammation and PAS for evaluation of mucus production. To quantify inflammation, H&E-stained lung sections were de-identified for blinding and scored for peribronchial and perivascular inflammatory cell infiltration: grade 0, no infiltration; grade 1, <25% of examined area; grade 2, 25–50%; grade 3, 51–75%; and grade 4, >75%. To quantify goblet cell hyperplasia, PAS stained lung sections were de-identified for blinding and scored for the percentage of PAS positive cells among airway epithelial cells: grade 0: none; grade 1 <25% of airway epithelial cells; grade 2, 25–50%; grade 3, 51–75%; and grade 4, >75%.

[2] = system: IL-6 release from A549 cells; experiment: Cytokine inhibition assay, IL-6 release from A549 cells; format: cell-based; conditions: Homo sapiens, TNFα 2 ng ml^-1, read-out: IC50 (suppression of IL-6 release)
Experimental: A549 cells into 24-well plates were split at 40 000 cells/well. After 1 day growth, cells were treated with various steroids 1 h before overnight induction of inflammation by 2 ng ml^–1 TNFα according to literature. Sixteen hours after treatment, cell culture supernatants were subjected to anti-IL-6 Elisa (R&D Quantikine Elisa Human IL-6 Kit) according to the manual.

[3] = target: T1, GR (Homo sapiens, UniProt P04150); conditions: cited from earlier work
T1 construct: expressed in transfected cells; host or cells: AD293
T1 sequence (P04150 1-777): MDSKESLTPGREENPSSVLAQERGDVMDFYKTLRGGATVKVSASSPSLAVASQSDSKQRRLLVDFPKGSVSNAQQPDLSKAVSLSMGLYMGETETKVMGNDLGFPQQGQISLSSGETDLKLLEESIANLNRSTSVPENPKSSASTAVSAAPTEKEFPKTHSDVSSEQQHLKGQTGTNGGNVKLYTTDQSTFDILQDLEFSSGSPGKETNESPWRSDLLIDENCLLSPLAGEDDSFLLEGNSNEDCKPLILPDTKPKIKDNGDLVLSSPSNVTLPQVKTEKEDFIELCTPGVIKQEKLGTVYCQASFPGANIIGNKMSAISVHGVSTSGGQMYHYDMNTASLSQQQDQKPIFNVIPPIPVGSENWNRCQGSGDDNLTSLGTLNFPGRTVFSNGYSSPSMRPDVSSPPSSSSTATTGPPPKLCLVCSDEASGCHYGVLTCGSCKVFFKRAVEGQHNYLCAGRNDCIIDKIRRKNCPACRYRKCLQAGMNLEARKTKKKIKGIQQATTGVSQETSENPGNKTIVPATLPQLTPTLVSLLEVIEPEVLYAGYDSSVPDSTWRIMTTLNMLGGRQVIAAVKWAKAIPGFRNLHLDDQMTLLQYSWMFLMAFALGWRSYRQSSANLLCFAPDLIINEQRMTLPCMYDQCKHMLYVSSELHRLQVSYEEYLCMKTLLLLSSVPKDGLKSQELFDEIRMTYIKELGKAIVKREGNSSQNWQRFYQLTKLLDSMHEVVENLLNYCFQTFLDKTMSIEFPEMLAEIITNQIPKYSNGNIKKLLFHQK

[4] = target: T1, GR; experiment: MMTV-Luc induction reporter assay in AD293 cells; format: cell-based; conditions: 16 h
Experimental: (§1) Similar to previous reports, for induction 100 ng pHHLuc (MMTV-Luc) plasmid, 0.1 ng pRShGR together with 5 ng phRGtkRenilla were transfected by X-tremeGENE 9 (Roche) into AD293 cells per well in 24-well plate. For transrepression, 10 ng AP-1-Luc or 10ng pNF-κB-luc, 100 ng pRShGR and 5 ng phRGtkRenilla were transfected into AD293 cells per well. We used the same transfection protocol for the MR and PR assays, except of the use of 0.1 ng MR or PR plasmid to substitute GR. One day after transfection, for induction, cells were directly treated by steroids for 16 h; for repression, cells were treated with either PMA at 0.6 ng ml^–1 (for AP-1 reporter) or TNFα at 2 ng ml^–1 (for NF-κB reporter), together with various steroids. Cells were collected by addition of 1× Passive Lysis Buffer (Promega, Madison, WI, USA), and luciferase activity was assayed by the Dual-Glo Luciferase system (Promega). Data were plotted as firefly luciferase activity normalized to Renilla luciferase activity in Relative Luciferase Units.

[5] = target: T1, GR; experiment: AP-1-Luc repression reporter assay in AD293 cells; format: cell-based; conditions: AP-1 reporter, PMA 0.6 ng ml^-1
Experimental: as §1

[6] = system: RAW264.7 cells; experiment: Gene expression (microarray and quantitative PCR) in LPS-stimulated RAW264.7 cells; format: cell-based, mouse; conditions: RAW264.7, LPS, steroid 100 nM
Experimental: Mouse macrophage RAW264.7 cells were grown in 6-well plates to reach 80% confluence. The cells were pretreated with different steroids at 100 nM 1 h before overnight induction of inflammation by 1 μg ml^–1 LPS. Total RNA was isolated using a Qiagen mini RNA extraction kit (Valencia, CA, USA). Complementary DNA was synthesized from total RNA with an Invitrogen Superscript cDNA synthesis kit (Carlsbad, CA, USA). Target genes were quantified with a Power SYBR Green Real-Time PCR kit (Carlsbad, CA, USA) (ABI) in a StepOnePlus real-time PCR instrument (Applied Biosystems, Carlsbad, CA, USA). In every case, GAPDH (glyceraldehyde-3-phosphate dehydrogenase) was used as an internal control and data were analyzed by the ΔΔCt method. The specificity of target primers was tested both in a dissociation (melting) curve (Supplementary Figure S4) and against a water control. Primer sequence information is included in Supplementary Figure S4.
RAW264.7 cells were treated with designated steroids at 100 nM 1 h before overnight LPS stimulation of inflammation. Each treatment was duplicated. The following day, RNA samples were isolated using a Qiagen mini RNA extraction kit and applied to the Agilent Whole Mouse Genome 8x60K gene expression platform. Data were analyzed by the limma package in R program. Heat maps were generated by the HeatMap 2 package. Pathway analysis was done via DAVID Bioinformatics Resources 6.7 (NIAID) and Venn diagrams were generated by BioVenn.

[7] = target: T1, GR; experiment: In vitro H3-Dex competition GR ligand-binding assay; conditions: H3-DEX 15 nM, GR cytosol
Source text: The in vitro GR binding assay is similar to the one described previously. […] Data were plotted as a standard competition curve by GraphPad Prism 5.

[8] = target: T1, GR; experiment: NF-κB-Luc repression reporter assay in AD293 cells; format: cell-based; conditions: TNFα 2 ng ml^-1
Experimental: as §1
Error bars indicate SD, n=3.

[9] = Bone density (μCT) and biomechanics testing of femurs; format: in vivo, DBA/1 mice; conditions: 1 mg kg^-1 daily, 2 weeks
Experimental: Femur bones were collected and scanned by μCT (Skyscan 1172 uCT) for quantification of trabecular and cortical bone parameters. The thresholds for μCT quantification of trabecular and cortical bone parameters were set at 80–100 and 100–110, respectively. μCT analyses of cortical bone parameters were performed on 100-μCT slices (1 mm total) from the middle shaft of femurs; trabecular parameters were assessed in 100-μCT slices (1 mm total) immediately below the distal growth plate of the femur. Following uCT scans, the femurs were individually tested on a TestResources 570 Force Transducer. Bones were thawed in PBS before being tested, to ensure no brittleness was due to freezing. […] Data points were collected at a frequency of 50 Hz and a deflection rate of 0.005 mm s^–1.

[10] = Insulin-tolerance test and plasma insulin level; conditions: 1 mg kg^-1 daily, 7 days
Experimental: DBA/1 mice (Taconic) were weighted just before the experiment. After 4 h fasting, mice were i.p. injected with 0.75 U kg^–1 of insulin (Huamlin R). Blood samples were taken from the tail at time 0 (before insulin injection), 15, 30, 45, 60, 90 and 120 min after injection. Plasma glucose levels were measured using an AlphaTrak glucose meter. All data were plotted as percent of glucose level at time 0. Endogenous insulin levels were measured using the Ultra Sensitive Mouse Insulin ELISA kit (Crystal Chem, Downers Groove, IL, USA).

[11] = Spleen size and weight (spleen atrophy); format: in vivo, DBA/1 mice; conditions: 1 mg kg^-1 daily, 2 weeks
Experimental: (§2) Figure 5 Examination of side effects of VSGC12 and FF at the effective dose. (a) Body weight of DBA/1 mice treated with the indicated daily dose of steroids for 2 weeks. Mice body weight was measured at day 0, 7 and 14. (b) Insulin-tolerance test of mice treated with the indicated daily doses of steroids for 7 days. Glucose level was measured at day 7 at various time points before and after insulin injection. Data were plotted as percent of the glucose level of time 0. (c) Plasma insulin levels of mice treated with the indicated daily doses of steroid for 7 days. (d) Spleen size and weight for mice treated with the indicated daily doses of steroid for 2 weeks. (e) Cortical bone thickness of femurs of mice treated with the indicated daily doses of steroid for 2 weeks. (f) Bone stiffness of femurs of mice treated with the indicated daily doses of steroid for 2 weeks. Mouse strain: DBA/1. Each treatment n=5, error bars indicate s.e.m., *P<0.05; **P<0.01; ***P<0.001.

[12] = Body weight (growth inhibition) of DBA/1 mice; format: in vivo; conditions: 1 mg kg^-1 daily i.p., 2 weeks, 7-week-old mice
Experimental: as §2

[13] = target: β2-adrenergic receptor induction; parameters: method as in PMID 10433509; conditions: A549 cells; cited from earlier work
[14] = system: granulocyte macrophage colony-stimulating factor release; parameters: method as in PMID 10433509; conditions: A549 cells; read-out: IC50 to inhibit granulocyte macrophage colony-stimulating factor release; cited from earlier work

C[C@@H]1C[C@H]2[C@@H]3CCC4=CC(=O)C=C[C@]4(C)[C@@]3(F)[C@@H](O)C[C@]2(C)[C@@]1(O)C(=O)CO [DEX, dexamethasone, reference compound]
infiltration of immune responsive cells into the lungs (total and differential cell count) ([1]; 1 mg kg^-1 i.p.): only a mild effect
repression of airway hyper-responsiveness (AHR) ([1]; 1 mg kg^-1 i.p.): neither VSG22 nor DEX can effectively repress the airway hyper-responsiveness
IC50 [2]: 0.8 nM

CON(C)C(=O)C1(OC(=O)c2ccco2)CCC2C3CCC4=Cc5c(cnn5-c5ccccc5)CC4(C)C3C(O)CC21C (stereo not drawn) [VSG22]
repression of airway hyper-responsiveness (AHR) ([1]; 1 mg kg^-1 i.p.): neither VSG22 nor DEX can effectively repress the airway hyper-responsiveness
increase in potency relative to the original backbone VSG24 [3]: more than 1 000 fold
IC50 [2]: 0.07 nM
EC50 [4]: 0.74 nM
IC50 [5]: 0.04 nM
inhibition activity of pro-inflammatory cytokines (microarray, normalized to DEX) [6]: much stronger inhibition activity than DEX
IC50 [7]: 4.1 nM
IC50 [8]: 0.1 nM

C[C@@H]1C[C@H]2[C@@H]3C[C@H](F)C4=CC(=O)C=C[C@]4(C)[C@@]3(F)[C@@H](O)C[C@]2(C)[C@@]1(OC(=O)c1ccco1)C(=O)SCF [FF, fluticasone furoate, reference compound]
bone strength (stiffness) of femurs [9]: dramatic decrease of bone strength in terms of stiffness
cortical bone thickness of femurs ([9]; μCT): dramatic decrease of the cortical bone thickness
% repression of total differentiated cells ([1]; 0.125 mg/kg): 14%
% repression of AHR ([1]; 0.125 mg/kg): < 28% and 28%
% repression of total differentiated cells ([1]; 0.25 mg/kg): 30%
% repression of AHR ([1]; 0.25 mg/kg): < 35% and 34%
infiltration of immune responsive cells into the lungs (total and differential cell count) ([1]; 1 mg kg^-1 i.p.): strongly repressed the infiltration of immune responsive cells into the lungs
repression of airway hyper-responsiveness (AHR) ([1]; 1 mg kg^-1 i.p.): strongly suppress the AHR to the basal level
histology score, PAS staining ([1]; 1 mg kg^-1 i.p., grade 0-4): 1.5
histology score, hematoxylin and eosin staining ([1]; 1 mg kg^-1 i.p., grade 0-4): 0.83
% repression of AHR ([1]; 1 mg/kg, OVA+DMSO 0, saline 100): 95%
% repression of total differentiated cells ([1]; 1 mg/kg, saline 100, OVA+DMSO 0): 94%
minimal dose to maximally repress the inflammation (maximal effective dose) ([1]; judged from AHR, i.p.): 1 mg kg^–1
OVA-IgE levels ([1]; lower doses (0.25, 0.125, 0.0625 mg kg^-1)): unexpectedly higher than the vehicle control
insulin resistance in insulin-tolerance test [10]: hyper-insulin resistance
plasma (endogenous) insulin level [10]: dramatic increase of the endogenous insulin level
IC50 [2]: 0.03 nM
atrophy of the spleen [11]: dramatic shrinkage of the spleen
growth inhibition (body weight) [12]: significant growth inhibition
inhibition activity of pro-inflammatory cytokines (microarray, normalized to DEX) [6]: much stronger inhibition activity than DEX

CCC(=O)O[C@]1(C(=O)SCF)[C@H](C)C[C@H]2[C@@H]3C[C@H](F)C4=CC(=O)C=C[C@]4(C)[C@@]3(F)[C@@H](O)C[C@@]21C [FP, fluticasone propionate]
EC50 [13]: 1.1 nM
IC50 [14]: 0.018 nM
